{"source": "patent US20240373851A1", "about": "“PEST CONTROL COMPOSITION AND PEST CONTROL METHOD” (SUMITOMO CHEMICAL COMPANY, LIMITED, priority 2021, published 2024)", "format_in_all_cases": "in vivo", "key": {"[1]": {"test_system": "German cockroaches (Blattella germanica)", "assay": "Test Example 1: control test against German cockroaches, spray in chamber (cup without filter paper)", "conditions": "adult German cockroaches; 1.5 mL sprayed; concentration [%]: broflanilide 0.01, imiprothrin 0.01, cypermethrin 0.01, alone or mixed; 120 minutes after spraying", "description": "(§1) Next, the usefulness of the inventive composition for controlling pests will be indicated by Test Examples. In general, the control effect to be expected when treated with a mixture obtained by mixing given two or three types of active ingredient compounds is determined by the Colby's calculation equation represented by the following [Equation 1] and [Equation 2].\n(§2) [formula] • P: moribund and mortal rates (%) when treated with an active ingredient compound X in the concentration of m [ppm] • Q: moribund and mortal rates (%) when treated with an active ingredient compound Y in the concentration of n [ppm] • EA: moribund and mortal rates (%) when treated with an active ingredient compound X in the concentration of m [ppm] and an active ingredient compound Y in the concentration of n [ppm] (hereinafter referred to as expected value A) […]\n(§3) Regarding the synergistic effect of three types of the active ingredient compounds, in case where the moribund and mortal rates (%) when actually treated with a mixture obtained by mixing three types of the active ingredient compounds exceed the expected value A calculated by using the moribund and mortal rates (%) when actually treated with a mixture obtained by mixing two types of the active ingredient compounds among three types thereof, and the moribund and mortal rates (%) calculated when actually treated the remaining one type of the active ingredient compound, or the expected value B (%) calculated from the moribund and mortal rates (%) when actually treated with each of three types of the active ingredient compounds alone, it was determined that the synergistic effect exists.\nIn a plastic cup (diameter: 12.4 cm, height: 10.2 cm), ten adult German cockroaches (Blattella germanica) (five males and five females each) were released, and the plastic cup was placed in the center of the bottom of a box-shaped chamber (46 cm×46 cm×70 cm in height). […] After a lapse of 120 minutes from spraying, the number of dead and moribund individuals was examined, and moribund and mortal rates (%) were determined by the equation 3 below. […]"}, "[2]": {"test_system": "German cockroaches (Blattella germanica)", "assay": "Test Example 2: control test against German cockroaches, spray in chamber", "conditions": "adult German cockroaches; 1.5 mL sprayed; concentration [%]: nicofluprole 0.01, imiprothrin 0.01, cypermethrin 0.01, alone or mixed; 120 minutes after spraying", "description": "as §1, §2\nas §3, with “exists. […]” for “exists.”"}, "[3]": {"test_system": "German cockroaches (Blattella germanica)", "assay": "Test Example 7: control test against German cockroaches, spray in chamber", "conditions": "adult German cockroaches; 1.5 mL sprayed; concentration [%]: isocycloseram 0.05, imiprothrin 0.01, cypermethrin 0.01, alone or mixed; 120 minutes after spraying", "description": "as §1, §2\nas §3, with “exists. […]” for “exists.”"}, "[4]": {"test_system": "German cockroaches (Blattella germanica)", "assay": "Test Example 10: control test against German cockroaches, spray in chamber", "conditions": "adult German cockroaches; 1.5 mL sprayed; concentration [%]: nicofluprole 0.01, imiprothrin 0.01, permethrin 0.05, alone or mixed; 60 minutes after spraying", "description": "as §1, §2\nas §3, with “exists. […]” for “exists.”"}}}
{"smiles": "C#CCN1CC(=O)N(COC(=O)[C@@H]2C(C=C(C)C)C2(C)C)C1=O", "note": "(mixture of isomers) [Imiprothrin, imiprothrin]", "values": [{"measurement": "Moribund and mortal rates [%] after 120 minutes", "setting": "[1]", "result": 15, "unit": "%"}, {"measurement": "Moribund and mortal rates [%] after 120 minutes", "setting": "[2]", "result": 15, "unit": "%"}, {"measurement": "Moribund and mortal rates [%] after 120 minutes", "setting": "[3]", "result": 5, "unit": "%"}, {"measurement": "Moribund and mortal rates [%] after 60 minutes", "setting": "[4]", "result": 40, "unit": "%"}]}
